{"source": "paper PMC11822212", "about": "“High-throughput screening identifies Aurora kinase B as a critical therapeutic target for Merkel cell carcinoma” (Nature Communications, 2025)", "experiment_in_all_cases": "qHTS cell viability (CellTiter-Glo, 72 h; primary and follow-up small molecule screen)", "assay_type_in_all_cases": "cell-based, human", "key": {"MCC13 cells (VN-MCC)": {"tested_on": "MCC13 cells (VN-MCC)"}, "MCC26 cells (VN-MCC)": {"tested_on": "MCC26 cells (VN-MCC)"}, "UISO cells (VN-MCC)": {"tested_on": "UISO cells (VN-MCC)"}, "WAGA cells (VP-MCC)": {"tested_on": "WAGA cells (VP-MCC)"}, "MKL-1 cells (VP-MCC)": {"tested_on": "MKL-1 cells (VP-MCC)"}, "MKL-2 cells (VP-MCC)": {"tested_on": "MKL-2 cells (VP-MCC)"}}, "note": "Several values for one entry are separate records, joined by “and”; a condition that tells them apart may be missing. Identical values can stand only once."}
{"molecule": "CCCC[C@@H](C)/C=C(C)/C=C(\\C)C(=O)NC1=C[C@@](O)(/C=C/C=C/C=C/C(=O)NC2=C(O)CCC2=O)[C@@H]2O[C@@H]2C1=O", "note": "[manumycin A]", "values": [{"measurement": "Area under the dose-response curve (AUC) MCC13 Replicate 1", "setting": "MCC13 cells (VN-MCC)", "value": 464.3}, {"measurement": "Area under the dose-response curve (AUC) MCC13 Replicate 2", "setting": "MCC13 cells (VN-MCC)", "value": 477.8}, {"measurement": "Area under the dose-response curve (AUC) MCC13 Replicate 3", "setting": "MCC13 cells (VN-MCC)", "value": 420.7}, {"measurement": "Area under the dose-response curve (AUC) MCC26 Replicate 1", "setting": "MCC26 cells (VN-MCC)", "value": 416.4}, {"measurement": "Area under the dose-response curve (AUC) MCC26 Replicate 2", "setting": "MCC26 cells (VN-MCC)", "value": 409.7}, {"measurement": "Area under the dose-response curve (AUC) MCC26 Replicate 3", "setting": "MCC26 cells (VN-MCC)", "value": 443.4}, {"measurement": "Area under the dose-response curve (AUC) UISO Replicate 1", "setting": "UISO cells (VN-MCC)", "value": 429.0}, {"measurement": "Area under the dose-response curve (AUC) UISO Replicate 2", "setting": "UISO cells (VN-MCC)", "value": 434.7}, {"measurement": "Area under the dose-response curve (AUC) UISO Replicate 3", "setting": "UISO cells (VN-MCC)", "value": 408.1}, {"measurement": "Area under the dose-response curve (AUC) WAGA Replicate 1", "setting": "WAGA cells (VP-MCC)", "value": 424.6}, {"measurement": "Area under the dose-response curve (AUC) WAGA Replicate 2", "setting": "WAGA cells (VP-MCC)", "value": 379.9}, {"measurement": "Area under the dose-response curve (AUC) WAGA Replicate 3", "setting": "WAGA cells (VP-MCC)", "value": 418.7}, {"measurement": "Area under the dose-response curve (AUC) MKL-1 Replicate 1", "setting": "MKL-1 cells (VP-MCC)", "value": 418.4}, {"measurement": "Area under the dose-response curve (AUC) MKL-1 Replicate 2", "setting": "MKL-1 cells (VP-MCC)", "value": 432.7}, {"measurement": "Area under the dose-response curve (AUC) MKL-1 Replicate 3", "setting": "MKL-1 cells (VP-MCC)", "value": 426.4}, {"measurement": "Area under the dose-response curve (AUC) MKL-2 Replicate 1", "setting": "MKL-2 cells (VP-MCC)", "value": 385.8}, {"measurement": "Area under the dose-response curve (AUC) MKL-2 Replicate 2", "setting": "MKL-2 cells (VP-MCC)", "value": 395.8}, {"measurement": "Area under the dose-response curve (AUC) MKL-2 Replicate 3", "setting": "MKL-2 cells (VP-MCC)", "value": 389.6}]}
{"molecule": "AZD-4547", "values": [{"measurement": "Area under the dose-response curve (AUC)", "setting": "MCC13 cells (VN-MCC)", "value": "385.3 and 349.5 and 390.1"}, {"measurement": "Area under the dose-response curve (AUC)", "setting": "MCC26 cells (VN-MCC)", "value": "311.4 and 288.0 and 307.4"}, {"measurement": "Area under the dose-response curve (AUC)", "setting": "UISO cells (VN-MCC)", "value": "337.7 and 347.0 and 331.2"}, {"measurement": "Area under the dose-response curve (AUC)", "setting": "WAGA cells (VP-MCC)", "value": "425.9 and 443.6 and 367.2"}, {"measurement": "Area under the dose-response curve (AUC)", "setting": "MKL-1 cells (VP-MCC)", "value": "362.7 and 390.5 and 360.0"}, {"measurement": "Area under the dose-response curve (AUC)", "setting": "MKL-2 cells (VP-MCC)", "value": "380.8 and 390.1 and 354.8"}]}
{"molecule": "Oxamflatin", "values": [{"measurement": "Area under the dose-response curve (AUC)", "setting": "MCC13 cells (VN-MCC)", "value": "440.6 and 393.8 and 429.1"}, {"measurement": "Area under the dose-response curve (AUC)", "setting": "MCC26 cells (VN-MCC)", "value": "406.5 and 378.8 and 411.0"}, {"measurement": "Area under the dose-response curve (AUC)", "setting": "UISO cells (VN-MCC)", "value": "391.0 and 406.3 and 400.1"}, {"measurement": "Area under the dose-response curve (AUC)", "setting": "WAGA cells (VP-MCC)", "value": "338.5 and 313.0 and 330.7"}, {"measurement": "Area under the dose-response curve (AUC)", "setting": "MKL-1 cells (VP-MCC)", "value": "365.5 and 347.7 and 381.7"}, {"measurement": "Area under the dose-response curve (AUC)", "setting": "MKL-2 cells (VP-MCC)", "value": "378.9 and 303.8 and 268.6"}]}
{"molecule": "Phenylmercuric acetate", "values": [{"measurement": "Area under the dose-response curve (AUC) MCC13 Replicate 1", "setting": "MCC13 cells (VN-MCC)", "value": 405.8}, {"measurement": "Area under the dose-response curve (AUC) MCC13 Replicate 2", "setting": "MCC13 cells (VN-MCC)", "value": 369.3}, {"measurement": "Area under the dose-response curve (AUC) MCC13 Replicate 3", "setting": "MCC13 cells (VN-MCC)", "value": 386.0}, {"measurement": "Area under the dose-response curve (AUC) MCC26 Replicate 1", "setting": "MCC26 cells (VN-MCC)", "value": 356.5}, {"measurement": "Area under the dose-response curve (AUC) MCC26 Replicate 2", "setting": "MCC26 cells (VN-MCC)", "value": 359.6}, {"measurement": "Area under the dose-response curve (AUC) MCC26 Replicate 3", "setting": "MCC26 cells (VN-MCC)", "value": 374.3}, {"measurement": "Area under the dose-response curve (AUC) UISO Replicate 1", "setting": "UISO cells (VN-MCC)", "value": 343.0}, {"measurement": "Area under the dose-response curve (AUC) UISO Replicate 2", "setting": "UISO cells (VN-MCC)", "value": 369.6}, {"measurement": "Area under the dose-response curve (AUC) UISO Replicate 3", "setting": "UISO cells (VN-MCC)", "value": 334.3}, {"measurement": "Area under the dose-response curve (AUC) WAGA Replicate 1", "setting": "WAGA cells (VP-MCC)", "value": 330.3}, {"measurement": "Area under the dose-response curve (AUC) WAGA Replicate 2", "setting": "WAGA cells (VP-MCC)", "value": 317.4}, {"measurement": "Area under the dose-response curve (AUC) WAGA Replicate 3", "setting": "WAGA cells (VP-MCC)", "value": 331.4}, {"measurement": "Area under the dose-response curve (AUC) MKL-1 Replicate 1", "setting": "MKL-1 cells (VP-MCC)", "value": 287.3}, {"measurement": "Area under the dose-response curve (AUC) MKL-1 Replicate 2", "setting": "MKL-1 cells (VP-MCC)", "value": 286.9}, {"measurement": "Area under the dose-response curve (AUC) MKL-1 Replicate 3", "setting": "MKL-1 cells (VP-MCC)", "value": 280.4}, {"measurement": "Area under the dose-response curve (AUC) MKL-2 Replicate 1", "setting": "MKL-2 cells (VP-MCC)", "value": 295.2}, {"measurement": "Area under the dose-response curve (AUC) MKL-2 Replicate 2", "setting": "MKL-2 cells (VP-MCC)", "value": 271.6}, {"measurement": "Area under the dose-response curve (AUC) MKL-2 Replicate 3", "setting": "MKL-2 cells (VP-MCC)", "value": 292.7}]}
{"molecule": "SP-600125", "values": [{"measurement": "Area under the dose-response curve (AUC) MCC13 Replicate 1", "setting": "MCC13 cells (VN-MCC)", "value": 457.8}, {"measurement": "Area under the dose-response curve (AUC) MCC13 Replicate 2", "setting": "MCC13 cells (VN-MCC)", "value": 483.0}, {"measurement": "Area under the dose-response curve (AUC) MCC13 Replicate 3", "setting": "MCC13 cells (VN-MCC)", "value": 492.5}, {"measurement": "Area under the dose-response curve (AUC) MCC26 Replicate 1", "setting": "MCC26 cells (VN-MCC)", "value": 435.5}, {"measurement": "Area under the dose-response curve (AUC) MCC26 Replicate 2", "setting": "MCC26 cells (VN-MCC)", "value": 426.6}, {"measurement": "Area under the dose-response curve (AUC) MCC26 Replicate 3", "setting": "MCC26 cells (VN-MCC)", "value": 458.4}, {"measurement": "Area under the dose-response curve (AUC) UISO Replicate 1", "setting": "UISO cells (VN-MCC)", "value": 425.2}, {"measurement": "Area under the dose-response curve (AUC) UISO Replicate 2", "setting": "UISO cells (VN-MCC)", "value": 449.0}, {"measurement": "Area under the dose-response curve (AUC) UISO Replicate 3", "setting": "UISO cells (VN-MCC)", "value": 462.0}, {"measurement": "Area under the dose-response curve (AUC) WAGA Replicate 1", "setting": "WAGA cells (VP-MCC)", "value": 479.2}, {"measurement": "Area under the dose-response curve (AUC) WAGA Replicate 2", "setting": "WAGA cells (VP-MCC)", "value": 486.5}, {"measurement": "Area under the dose-response curve (AUC) WAGA Replicate 3", "setting": "WAGA cells (VP-MCC)", "value": 468.4}, {"measurement": "Area under the dose-response curve (AUC) MKL-1 Replicate 1", "setting": "MKL-1 cells (VP-MCC)", "value": 472.9}, {"measurement": "Area under the dose-response curve (AUC) MKL-1 Replicate 2", "setting": "MKL-1 cells (VP-MCC)", "value": 491.9}, {"measurement": "Area under the dose-response curve (AUC) MKL-1 Replicate 3", "setting": "MKL-1 cells (VP-MCC)", "value": 491.6}, {"measurement": "Area under the dose-response curve (AUC) MKL-2 Replicate 1", "setting": "MKL-2 cells (VP-MCC)", "value": 447.3}, {"measurement": "Area under the dose-response curve (AUC) MKL-2 Replicate 2", "setting": "MKL-2 cells (VP-MCC)", "value": 464.7}, {"measurement": "Area under the dose-response curve (AUC) MKL-2 Replicate 3", "setting": "MKL-2 cells (VP-MCC)", "value": 498.4}]}
